Measurements as given in publication PMC8639922, “KSHV transactivator-derived small peptide traps coactivators to attenuate MYC and inhibits leukemia and lymphoma cell growth” (Communications Biology, 2021).
Square brackets hold non-standard residues; d marks the D form. Peptide text beside a SMILES is read from it. Orn = NCCC[C@H](N)C(=O)O; βAla = NCCC(=O)O

How the values were obtained:
[1] = format: in vivo, BALB/c mice; conditions: BALB/c female, 10 mg/kg i.p., 5 day-on 2 day-off, two weeks, average n=5/group
Protocol: Based on strong and selective MYC down-regulation and cell killing activity of cancer cells in vitro, we next studied the therapeutic potential of VGN50 by examining the efficacy of cancer cell killing over toxicities to mice in a PEL xenograft model with BCBL-1 cells. Pilot studies determined that the peptide was well-tolerated in immunocompetent mice when administered as 10 mg/kg peptide via intraperitoneal (i.p.) injection with a 5-day-on 2-day-off schedule for 2 weeks, as shown by no notable changes in body weight, complete blood counts, and serum biochemical properties (Supplementary Fig. 5). Based on the drug schedule, we examined the effects of the peptide on xenograft PEL cell growth. In this established model, BCBL-1 cells grow in the peritoneal cavity resulting in the accumulation of ascites, which can be measured as a body weight gain that corresponds to the volume of ascites. We inoculated male NRG mice with 2 × 10^7 BCBL-1 cells via i.p. injection followed by injections of VGN50 (10 mg/kg), mutant control peptide or PBS, daily for 10 days starting from 2 days after (day 0) tumor inoculation. All mice in the control PBS-treated groups reached the humane endpoint by 10 days (Fig. 6a). […] At the termination point, tumor growth was also validated by flow cytometry analysis of PEL cells in ascites fluid (Fig. 6b, c). […] A similar phenotype is reported in MYC knock-out cardiac myocytes and keratinocytes[56],[57].
PBS VGN50 Mutant Normal ranges […]
Ext ended Dat a Fi gure 5. BALB/ c mi ce ( 8 weeks ol d, female, n=5/ gr oup) wer e i nj ect ed wi t h 10mg/ kg of VGN50 or mut ant pept i de i n 200 uL i.p. wi t h a 5 day-on 2 day off schedul e f or t wo week s . Body wei ght changes wer e measur ed dai l y ( a) . At t he end of t he exper i ment , f r esh bl ood and ser um col l ect ed wer e subj ect ed f or complet e blood count s and serum biochemical pr oper t i es, r espect i vel y ( b) .
(1 picture or pasted object on this page, not shown here)

BC-1 cells = assay: MTT assay, deletion and mutant peptides; format: cell-based, human; conditions: BC-1, 64 μM
Text: Fig. 2 Viral and cellular responses to K-Rta peptide; identification of VGN50. a Protein sequence alignment. Homologous protein sequences were searched for with BLAST and extracted from other gamma-herpesviral homologs. The consensus protein sequence is depicted at the bottom of table. b Peptide design. Deletion peptides were designed based on the consensus sequence in a. The TAT protein sequence was used as a cell-penetrating peptide (CPP) and placed downstream from the K-Rta protein sequence. (d-R) D amino acid arginine, (ORN) ornithine, (bAla) beta alanine. c Sub cellular peptide localization. Cy5-labeled peptide 1 was used to track subcellular localization. Nuclei were visualized by DAPI staining. The scale is indicated in the panel. d MTT assays with deletion and mutant peptides. Peptide listed in b were incubated with BC-1 cells and MTT conversion was measured 48 h after incubation. The OD of mock-treated samples were set as 100%, and OD from detergent-treated cells were set as 0%. The amount of each peptide used for incubation is depicted along the x-axis. Mean percentage viability ±SD were calculated for each treatment group (n = 3 samples). Peptide 1 was renamed as VGN50. e Flow cytometry analyses of cell proliferation and apoptosis induction. Cells were incubated with VGN50 or mutant peptide (three alanine substitutions) for 24 h followed by measurements of percentage cell proliferation (Ki67 staining) and apoptosis induction (Annexin V staining). Standard deviation bars are included. (n = 3) Two-way Anova, followed by Sidak’s multiple comparisons test. f The effect of VGN50 on various cancer cell types. MTT assays were performed with the indicated cell lines treated with various VGN50 concentrations. The OD of mock-treated samples were set as 100%, and OD from detergent-treated cells were set as 0%. Mean percentage viability ±SD was calculated for each treatment (n = 3 samples/treatment). g Viability assay with flow cytometry. Cell viability was measured in triplicate with live/dead staining and the cell killing effects on cancer cells was compared with normal peripheral blood mononuclear cells (PBMC) from three healthy donors. Results are presented as mean percentage viability ±SD (n = 3 samples/group). f, g Ordinary one-way Anova, followed by Tukey’s multiple comparisons test. […]
Leukoreduction system chambers (LRS) from healthy donors were purchased from Vitalant. […] Cell death, apoptosis, and proliferation were analyzed by flow cytometry (BD Acuri) after intracellular staining with anti-humanKi67-Alexa488 (Biolegend, 1:100) along with the isotype control antibody, annexin-V-FITC with 7-AAD staining (Biolegend) according to the manufacture’s protocol, Live/dead Fixable Red Dead Cell staining kit (Invitrogen) according to the manufacture’s protocol, or MTT assay. […]

In the case of `CC(C)C[C@H](NC(=O)CCNC(=O)[C@H](CCCNC(=N)N)NC(=O)[C@H](CCCNC(=N)N)NC(=O)[C@H](CCCNC(=N)N)NC(=O)[C@H](CCCN)NC(=O)[C@H](CCCNC(=N)N)NC(=O)[C@H](CCCNC(=N)N)NC(=O)[C@H](CCCCN)NC(=O)[C@H](CCCCN)NC(=O)[C@H](N)CCCNC(=N)N)C(=O)N[C@@H](CO)C(=O)N[C@@H](CO)C(=O)N[C@@H](C)C(=O)N[C@@H](C)C(=O)N[C@@H](C)C(=O)NCC(=O)N[C@@H](CC(C)C)C(=O)N[C@@H](Cc1ccc(O)cc1)C(=O)N[C@@H](CCC(N)=O)C(=O)N[C@@H](CC(C)C)C(=O)N[C@@H](CC(=O)O)C(=O)N[C@H](C(=O)O)[C@@H](C)O` [Mt-P] (H-[dR]KKRR[Orn]RRR[βAla]LSSAAAGLYQLDT-OH; N-terminus and C-terminus assumed), the “Absolute Basophil cells” value ([1]; normal 0.0-0.1) is reported as 0.06 K/ul, the “Absolute Eosinophil cells” value ([1]; normal 0.0-0.1) is reported as 0.14 K/ul and the “Total Bilirubin” value ([1]; normal 0.0-0.2) is reported as 0.05 mg/dL. The Creatinine ([1]; normal 0.0-0.3) was 0.20 mg/dL, the Basophil % ([1]; normal 0.0-0.5) was 0.70% and the Eosinophil % ([1]; normal 0.0-0.8) was 2.14%. The “Alanine Transaminase” value ([1]; normal 0-403) was 82.85 U/L, the “Aspartate Transaminase” value ([1]; normal 0-552) was 651.13 U/L and the “Absolute Monocyte cells” value ([1]; normal 0.2-1.0) was 0.43 K/ul. For the same molecule, the “Absolute Neutrophil cells” value ([1]; normal 1.0-3.7) was 1.12 K/ul, the Monocyte % ([1]; normal 2.5-7.5) was 5.52% and the Albumin ([1]; normal 2.9-4.0) was 3.67 g/dL. For the same molecule, the “Absolute Lymphocyte cells” value ([1]; normal 4.3-10.6) was 2.54 K/ul, the “Total Protein” value ([1]; normal 4.7-6.1) was 4.81 g/dL and the MPV ([1]; normal 5.0-20.0) was 3.05 fL. For the same molecule, the WBC ([1]; normal 5.1-14.7) was 4.22 K/ul, the Potassium ([1]; normal 6.9-10.0) was 6.90 mmol/L and the Phosphorus ([1]; normal 7.5-10.7) was 7.46 mg/dL. It also gave a Calcium ([1]; normal 9.6-11-5) of 9.39 mg/dL, a Hemoglobin ([1]; normal 11.7-16.2) of 7.07 g/dL and an RDW % ([1]; normal 12.4-27.0) of 10.08%. For the same molecule, the Neutrophil % ([1]; normal 12.5-31.2) was 16.70%, the MCH ([1]; normal 13.3-16.7) was 7.62 pg and the “Blood Urea Nitrogen” value ([1]; normal 15.2-34.7) was 20.03 mg/dL. It also gave an MCHC ([1]; normal 27.6-32.9) of 13.18 g/dL, a Hematocrit % ([1]; normal 38.3-54.0) of 27.72% and an MCV ([1]; normal 45.3-53.6) of 29.04 fL. The “Alkaline Phosphatase” value ([1]; normal 49-172) was 129.20 U/L, the Lymphocyte % ([1]; normal 62.9-82.7) was 31.21% and the Chloride ([1]; normal 105-118) was 112.13 mmol/L. It also gave a Glucose ([1]; normal 130-254) of 194.73 mg/dL, a Sodium ([1]; normal 150-160) of 145.25 mmol/L and a Platelets ([1]; normal 574-1079) of 333.29 K/uL. For the same molecule, the Amylase ([1]; normal 2463-6660) was 1624.05 U/L and the “Reduction of cell viability (MTT) compared to untreated control” value (BC-1 cells) was 20%.
